For eight compounds, Activity and mortality results are on record in ChEMBL document CHEMBL3046929, “Ethyl 4-[2-(6-Methyl-3-pyridyloxy)butyloxy]benzoate, a novel anti-juvenile hormone agent” (2003).

What is called mortality is the share of the test organisms that died.

The subject of test [1] is Bombyx mori. In words: Anti-juvenile activity against newly molted third-instar larval stage of Bombyx mori Shunrei x shougetsu reared on artificial diet assessed as induction of precocious pupation at 100 ug. It counts as functional, organism-based.
Test [2] relates to Bombyx mori. In words: Anti-juvenile activity against newly molted fourth-instar larval stage of Bombyx mori Shunrei x shougetsu reared on artificial diet assessed as induction of precocious pupation at 100 ug. It is filed as functional, organism-based.
Test [3] concerns Bombyx mori. As to the kind of experiment: Anti-juvenile activity against newly molted third-instar larval stage of Bombyx mori Shunrei x shougetsu reared on artificial diet assessed as blackening of cuticle measured after third ecdysis. It is filed as functional, organism-based.
Test [4] has as its system Bombyx mori. As to the kind of experiment: Anti-juvenile activity against newly molted fourth-instar larval stage of Bombyx mori Shunrei x shougetsu reared on artificial diet assessed as induction of precocious metamorphosis in presence of 20-hydroxyecdysone. It is filed as functional.
Test [5] has as its system Bombyx mori. As to the kind of experiment: Anti-juvenile activity against newly molted third-instar larval stage of Bombyx mori Shunrei x shougetsu reared on artificial diet assessed as induction of precocious metamorphosis in presence of 20-hydroxyecdysone. It is filed as functional.
The subject of test [6] is Bombyx mori. As to the kind of experiment: Anti-juvenile activity against newly molted fourth-instar larval stage of Bombyx mori Shunrei x shougetsu reared on artificial diet assessed as induction of precocious metamorphosis in presence of juvenile hormone agonist methoprene. It is filed as functional.
The test system of test [7] is Bombyx mori. In words: Anti-juvenile activity against newly molted third-instar larval stage of Bombyx mori Shunrei x shougetsu reared on artificial diet assessed as induction of precocious metamorphosis in presence of juvenile hormone agonist methoprene. It is filed as functional.
In test [8] the test system is Bombyx mori. In words: Anti-juvenile activity against newly molted third-instar larval stage of Bombyx mori Shunrei x shougetsu reared on artificial diet assessed as induction of precocious pupation at 1 to 100 ug/larva. It is filed as functional, organism-based.
In test [9] the test system is Bombyx mori. In words: Anti-juvenile activity against newly molted fourth-instar larval stage of Bombyx mori Shunrei x shougetsu reared on artificial diet assessed as induction of precocious pupation. It is filed as functional, organism-based.
Test [10] has as its system Bombyx mori. In words: Anti-juvenile activity against newly molted third-instar larval stage of Bombyx mori Shunrei x shougetsu reared on artificial diet assessed as induction of precocious metamorphosis at 100 ug/larva relative to control. It counts as functional.
The subject of test [11] is Bombyx mori. In words: Anti-juvenile activity against newly molted third-instar larval stage of Bombyx mori Shunrei x shougetsu reared on artificial diet assessed as induction of precocious metamorphosis at 10 ug/larva relative to control. It counts as functional.
Test [12] concerns Bombyx mori. In words: Anti-juvenile activity against newly molted third-instar larval stage of Bombyx mori Shunrei x shougetsu reared on artificial diet assessed as induction of precocious metamorphosis at 1 ug/larva relative to control. It counts as functional.
For test [13], the system named is Bombyx mori. In words: Anti-juvenile activity against newly molted third-instar larval stage of Bombyx mori Shunrei x shougetsu reared on artificial diet assessed as mortality at 100 ug/larva relative to control. It counts as functional.

Each structure is given as a SMILES string. The source made the active and inactive calls. The rule behind the calls is not given here.

Turning to `CCc1cccc(OCC(CC)Oc2ccc(C)nc2)c1` (stereo unspecified), the result in the test on Bombyx mori [1] and in the test on Bombyx mori [2] was inactive.

On to `CCOC(=O)c1ccc(OCC(CC)Oc2ccc(C)nc2)cc1` (stereo unspecified), for which the result in the test with Bombyx mori [3] was Active. The Activity with Bombyx mori [4] worked out at 84%; in the test with Bombyx mori [5], 90%; in the test on Bombyx mori [6], 0%; in the test on Bombyx mori [7] it was 0%; with Bombyx mori [10], 83%; in the test on Bombyx mori [11], 40%. Further, in the test on Bombyx mori [12], the Activity is 0%. In addition, the outcome in the test on Bombyx mori [8] and in the test with Bombyx mori [9] was inactive.

As for `CCC(COc1cccc(Cl)c1)Oc1ccc(C)nc1` (stereo unspecified), the result with Bombyx mori [1] and with Bombyx mori [2] was inactive.

Take `Cc1ccc(OCCOc2cccc(Cl)c2)cn1`: the mortality with Bombyx mori [13] came out at 100%. Moreover, in the test on Bombyx mori [11], the Activity came to 0%.

For the compound `CCc1ccc(OCC(CC)Oc2ccc(C)nc2)cc1` (stereo unspecified), the outcome in the test on Bombyx mori [1] and in the test on Bombyx mori [2] was inactive.

For `CCOC(=O)c1ccc(OCC(CC)OC(=O)C(C)(C)C)cc1` (stereo unspecified), the result in the test on Bombyx mori [9] was inactive. Besides, the results for the Activity in the test with Bombyx mori [10], in the test on Bombyx mori [11] and with Bombyx mori [12] were 0%, 23% and 0%, respectively.

On to `CCOC(=O)c1cccc(OCC(CC)Oc2ccc(C)nc2)c1` (stereo unspecified), for which the outcome in the test with Bombyx mori [1] and with Bombyx mori [2] was inactive.

For the compound `CCC(COc1ccc(Cl)cc1)Oc1ccc(C)nc1` (stereo unspecified), the result in the test with Bombyx mori [1] and in the test with Bombyx mori [2] was inactive.
